Source: patent US8680113B2, “BMI-1 protein expression modulators” (PTC Therapeutics, Inc., priority 2008, dated 2014)

test system: Bmi-1; assay: Sandwich ELISA Assay (Bmi-1 ELISA in HT-1080 cells); format: cell-based, human
Outline: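 HT-1080 cells (8000/well) were treated with compounds in 0.5% final DMSO for 40-48 h at 37°C and then lysed. Bmi-1 in lysates was measured by sandwich ELISA: overnight capture at 4°C on mouse monoclonal, rabbit anti-Bmi-1 detection, HRP anti-rabbit, TMB. OD450 was read with an OD570 reference against a recombinant GST-Bmi-1 standard curve (0-8000 pg/mL).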

IC50 | SMILES
< 500 nM | CCOc1ccc(N(C)c2nccc(-c3c(C)nc4ccccn34)n2)cc1 [Cpd 142, N-(4-ethoxyphenyl)-N-methyl-4-(2-methylimidazo[1,2-a]pyridin-3-yl)pyrimidin-2-amine]
500 to 1000 nM | Cc1nc2ccccn2c1-c1ccnc(N(C)c2ccc(I)cc2)n1 [Cpd 143, N-(4-iodophenyl)-N-methyl-4-(2-methylimidazo[1,2-a]pyridin-3-yl)pyrimidin-2-amine]
< 500 nM | CCc1nc2ncccn2c1-c1csc(Nc2ccc(OC)cc2)n1 [Cpd 144, 4-(2-ethylimidazo[1,2-a]pyrimidin-3-yl)-N-(4-methoxyphenyl)-1,3-thiazol-2-amine]
< 500 nM | CCc1nc2ncccn2c1-c1csc(Nc2ccc(N(C)C)cc2)n1 [Cpd 145, N′-[4-(2-ethylimidazo[1,2-a]pyrimidin-3-yl)-1,3-thiazol-2-yl]-N,N-dimethylbenzene-1,4-diamine]
< 500 nM | CCc1nc2ncccn2c1-c1csc(Nc2c(Br)cc(OC)cc2Br)n1 [Cpd 146, N-(2,6-dibromo-4-methoxyphenyl)-4-(2-ethylimidazo[1,2-a]pyrimidin-3-yl)-1,3-thiazol-2-amine]
< 500 nM | CCc1nc2ncccn2c1-c1csc(Nc2ccc(Cl)cc2)n1 [Cpd 147, N-(4-chlorophenyl)-4-(2-ethylimidazo[1,2-a]pyrimidin-3-yl)-1,3-thiazol-2-amine]
< 500 nM | CCc1nc2ncccn2c1-c1csc(Nc2ccc(Br)cc2)n1 [Cpd 148, N-(4-bromophenyl)-4-(2-ethylimidazo[1,2-a]pyrimidin-3-yl)-1,3-thiazol-2-amine]
< 500 nM | CCc1nc2ncccn2c1-c1csc(Nc2ccc(I)cc2)n1 [Cpd 149, 4-(2-ethylimidazo[1,2-a]pyrimidin-3-yl)-N-(4-iodophenyl)-1,3-thiazol-2-amine]
< 500 nM | CCc1nc2ncccn2c1-c1csc(Nc2ccc(C(C)=O)cc2)n1 [Cpd 150, 1-(4-{[4-(2-ethylimidazo[1,2-a]pyrimidin-3-yl)-1,3-thiazol-2-yl]amino}phenyl)ethanone]
< 500 nM | CCc1nc2ncccn2c1-c1csc(Nc2ccc3c(c2)OCO3)n1 [Cpd 151, N-(1,3-benzodioxol-5-yl)-4-(2-ethylimidazo[1,2-a]pyrimidin-3-yl)-1,3-thiazol-2-amine]
< 500 nM | CCc1nc2ncccn2c1-c1csc(Nc2ccc(OC)c(F)c2)n1 [Cpd 152, 4-(2-ethylimidazo[1,2-a]pyrimidin-3-yl)-N-(3-fluoro-4-methoxyphenyl)-1,3-thiazol-2-amine]
< 500 nM | CCc1nc2ncccn2c1-c1csc(Nc2ccc(OC)c(Cl)c2)n1 [Cpd 153, N-(3-chloro-4-methoxyphenyl)-4-(2-ethylimidazo[1,2-a]pyrimidin-3-yl)-1,3-thiazol-2-amine]
< 500 nM | FC(F)(F)c1nc2ncccn2c1-c1csc(Nc2ccc3c(c2)OCO3)n1 [Cpd 154, N-(1,3-benzodioxol-5-yl)-4-[2-(trifluoromethyl)imidazo[1,2-a]pyrimidin-3-yl]-1,3-thiazol-2-amine]
< 500 nM | COc1ccc(Nc2nc(-c3c(C)nc4ccc(F)cn34)cs2)cc1F [Cpd 155, N-(3-fluoro-4-methoxyphenyl)-4-(6-fluoro-2-methylimidazo[1,2-a]pyridin-3-yl)-1,3-thiazol-2-amine]
< 500 nM | Cc1nc2ccc(F)cn2c1-c1csc(Nc2ccc(I)cc2)n1 [Cpd 156, 4-(6-fluoro-2-methylimidazo[1,2-a]pyridine-3-yl)-N-(4-iodophenyl)-1,3-thiazol-2-amine]
< 500 nM | Cc1nc2ccc(F)cn2c1-c1csc(Nc2ccc(N(C)C)cc2)n1 [Cpd 157, N′-[4-(6-fluoro-2-methylimidazo[1,2-a]pyridin-3-yl)-1,3-thiazol-2-yl]-N,N-dimethylbenzene-1,4-diamine]

IC50 | SMILES
< 500 nM | Cc1nc2ccc(F)cn2c1-c1csc(Nc2ccc3c(c2)OCO3)n1 [Cpd 158, N-(1,3-benzodioxol-5-yl)-4-(6-fluoro-2-methylimidazo[1,2-a]pyridin-3-yl)-1,3-thiazol-2-amine]
< 500 nM | CC(=O)c1ccc(Nc2nc(-c3c(C)nc4ccc(F)cn34)cs2)cc1 [Cpd 159, 1-(4-{[4-(6-fluoro-2-methylimidazo[1,2-a]pyridin-3-yl)-1,3-thiazol-2-yl]amino}phenyl)ethanone]
< 500 nM | COc1ccc(Nc2nc(-c3c(C)nc4ccc(F)cn34)cs2)cc1 [Cpd 160, 4-(6-fluoro-2-methylimidazo[1,2-a]pyridin-3-yl)-N-(4-methoxyphenyl)-1,3-thiazol-2-amine]
< 500 nM | Cc1nc2ccc(F)cn2c1-c1csc(Nc2ccc(Cl)cc2)n1 [Cpd 161, N-(4-chlorophenyl)-4-(6-fluoro-2-methylimidazo[1,2-a]pyridin-3-yl)-1,3-thiazol-2-amine]
< 500 nM | Cc1nc2ccc(F)cn2c1-c1csc(Nc2ccc(Br)cc2)n1 [Cpd 162, N-(4-bromophenyl)-4-(6-fluoro-2-methylimidazo[1,2-a]pyridin-3-yl)-1,3-thiazol-2-amine]
< 500 nM | CCOc1ccc(Nc2nc(-c3c(C)nc4ccc(F)cn34)cs2)cc1 [Cpd 163, N-(4-ethoxyphenyl)-4-(6-fluoro-2-methylimidazo[1,2-a]pyridin-3-yl)-1,3-thiazol-2-amine]
< 500 nM | Cc1nc2ccc(F)cn2c1-c1csc(Nc2ccc(C(C)(C)C)cc2)n1 [Cpd 164, N-(4-tert-butylphenyl)-4-(6-fluoro-2-methylimidazo[1,2-a]pyridin-3-yl)-1,3-thiazol-2-amine]
< 500 nM | Cc1nc2ccc(F)cn2c1-c1csc(Nc2ccc(Br)cc2Cl)n1 [Cpd 165, N-(4-bromo-2-chlorophenyl)-4-(6-fluoro-2-methylimidazo[1,2-a]pyridin-3-yl)-1,3-thiazol-2-amine]
< 500 nM | Fc1ccccc1Nc1nccc(-c2cnc3ccccn23)n1 [Cpd 166, N-(2-fluorophenyl)-4-(imidazo[1,2-a]pyridin-3-yl)pyrimidin-2-amine]
< 500 nM | CC(=O)c1ccc(N(C)c2nccc(-c3c(C)nc4ccccn34)n2)cc1 [Cpd 167, 1-(4-{methyl[4-(2-methylimidazo[1,2-a]pyridin-3-yl)pyrimidin-2-yl]amino}phenyl)ethanone]
< 500 nM | Cc1ccc(Nc2nccc(-c3c(C)nc4ncccn34)n2)cc1 [Cpd 168, 4-(2-methylimidazo[1,2-a]pyrimidin-3-yl)-N-(4-methylphenyl)pyrimidin-2-amine]
< 500 nM | Cc1ccc(Nc2nccc(-c3c(C)nc4ccccn34)n2)cc1 [Cpd 169, 4-(2-methylimidazo[1,2-a]pyridin-3-yl)-N-(4-methylphenyl)pyrimidin-2-amine]
< 500 nM | Cc1ccc(N(C)c2nccc(-c3c(C)nc4ncccn34)n2)cc1 [Cpd 170, N-methyl-4-(2-methylimidazo[1,2-a]pyrimidin-3-yl)-N-(4-methylphenyl)pyrimidin-2-amine]
< 500 nM | CCCc1nc2ccccn2c1-c1csc(Nc2ccc(OC)c(F)c2)n1 [Cpd 171, N-(3-fluoro-4-methoxyphenyl)-4-(2-propylimidazo[1,2-a]pyridin-3-yl)-1,3-thiazol-2-amine]
< 500 nM | CCCc1nc2ccccn2c1-c1csc(Nc2ccc(OC)c(Cl)c2)n1 [Cpd 172, N-(3-chloro-4-methoxyphenyl)-4-(2-propylimidazo[1,2-a]pyridin-3-yl)-1,3-thiazol-2-amine]
